Bounds are passed on as bounds.

Consider 20 molecules from ChEMBL document CHEMBL3612058, “Synthesis and biological evaluation of a new series of 2-amino-3-aroyl thiophene derivatives as agonist allosteric modulators of the A1 adenosine receptor. A position-dependent effect study” (Eur J Med Chem, 2015).

Test [1] has as its target T1, Adenosine receptor A1 (Homo sapiens) (UniProt P30542).
T1 sequence (whole entry): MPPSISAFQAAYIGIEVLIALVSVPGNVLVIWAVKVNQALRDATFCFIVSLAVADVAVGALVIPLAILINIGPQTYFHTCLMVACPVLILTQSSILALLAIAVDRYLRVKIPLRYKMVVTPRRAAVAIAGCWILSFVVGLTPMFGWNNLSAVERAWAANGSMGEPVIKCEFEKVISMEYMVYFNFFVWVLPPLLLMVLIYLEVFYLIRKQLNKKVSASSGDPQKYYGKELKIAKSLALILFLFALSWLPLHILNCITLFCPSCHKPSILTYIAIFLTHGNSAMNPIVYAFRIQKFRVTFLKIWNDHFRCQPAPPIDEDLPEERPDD
The test is described as follows: Binding affinity to human adenosine A1 receptor expressed in CHO cells assessed as fold Bmax shift of [3H]-CCPA at 10 uM after 90 mins by [3H]-CCPA binding assay relative to control. Type of test: cell-based.

For test [2], the target named is T1, Adenosine receptor A1 (Homo sapiens). Kind of test: Binding affinity to human adenosine A1 receptor expressed in CHO cells assessed as fold Ki shift of CCPA at 10 uM after 90 mins by [3H]-CCPA displacement assay relative to control. Type of test: cell-based.
The target is the same in test [3]. The test is described as follows: Positive allosteric enhancement of human cloned adenosine A1 receptor expressed in CHO cells assessed as inhibition of forskolin-induced cAMP accumulation at 100 nM using [3H]-cAMP by scintillation counting relative to control in presence of 1 pM of CCPA. Type of test: functional, cell-based.
The target is the same in test [4]. The test is described as follows: Ratio of PD81723 to compound for positive allosteric enhancement of human cloned adenosine A1 receptor expressed in CHO cells assessed as inhibition of forskolin-induced cAMP accumulation at 10 uM using [3H]-cAMP by scintillation counting. Type of test: functional, cell-based.
Test [5] in a line: Displacement of [3H]-ZM241385 from human adenosine A2 receptor expressed in CHO cells at 10 uM after 120 mins by scintillation counting. Type of test: cell-based.
In test [6] the target is T2, Adenosine receptor A3 (Homo sapiens) (UniProt P0DMS8).
T2 sequence (whole entry): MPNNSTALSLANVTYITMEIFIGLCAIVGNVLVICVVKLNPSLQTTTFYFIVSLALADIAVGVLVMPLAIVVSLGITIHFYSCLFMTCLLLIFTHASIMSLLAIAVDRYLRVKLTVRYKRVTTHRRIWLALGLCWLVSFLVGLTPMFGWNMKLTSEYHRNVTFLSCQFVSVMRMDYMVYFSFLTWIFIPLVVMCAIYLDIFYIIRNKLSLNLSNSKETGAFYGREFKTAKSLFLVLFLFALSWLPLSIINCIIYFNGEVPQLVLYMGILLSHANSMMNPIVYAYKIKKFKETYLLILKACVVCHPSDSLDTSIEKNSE
The test is described as follows: Displacement of [3H]-MRE-3008-F20 from human adenosine A3 receptor expressed in CHO cells at 10 uM after 120 mins by scintillation counting. Type of test: cell-based.

In test [7] the target is T1, Adenosine receptor A1 (Homo sapiens). The test is described as follows: Positive allosteric enhancement of human cloned adenosine A1 receptor expressed in CHO cells assessed as inhibition of forskolin-induced cAMP accumulation at 10 uM using [3H]-cAMP by scintillation counting relative to control. Type of test: functional, cell-based.
The target is the same in test [8]. Kind of test: Displacement of [3H]DPCPX from human adenosine A1 receptor expressed in CHO cells at 10 uM after 120 mins by scintillation counting. Type of test: cell-based.

For `CC(C)Oc1ccc(Cc2c(-c3ccccc3)sc(N)c2C(=O)c2ccc(Cl)cc2)cc1`, the figures for the fold change (FC) in test [1] and in test [2] were 7.6 and 5.8, respectively. Moreover, the inhibition in test [3] was 67%; in test [5], less than 10%; in test [6], less than 10%; in test [7], 65%; in test [8] it was less than 10%. In addition, the Ratio in test [4] turned out to be 3.
On to `CSc1ccc(Cc2c(-c3ccccc3)sc(N)c2C(=O)c2ccc(Cl)cc2)cc1`, for which the fold change (FC) was 6.6 in test [1] and 6.3 in test [2]. Besides, the inhibition in test [3] is 65%; in test [5], less than 10%; in test [6] it was less than 10%; in test [7], 63%; in test [8], less than 10%. Moreover, the Ratio in test [4] turned out to be 3.
In the case of `Nc1sc(-c2ccccc2)c(Cc2ccc(Cl)cc2)c1C(=O)c1ccc(Cl)cc1`, the results for the fold change (FC) in test [1] and in test [2] were 6.4 and 5.6, respectively. Moreover, the inhibition is 64% in test [3]; less than 10% in test [5]; less than 10% in test [6]; 61% in test [7]; less than 10% in test [8]. In test [4], the Ratio is 3.
For the molecule `COc1ccc(Cc2c(-c3ccccc3)sc(N)c2C(=O)c2ccc(Cl)cc2)c(OC)c1`, the fold change (FC) worked out at 5.6 in test [1] and 4.2 in test [2]. For the same molecule, the inhibition in test [3] is 53%; in test [5], less than 10%; in test [6] it was less than 10%; in test [7], 52%; in test [8], less than 10%. The Ratio in test [4] is 3.
In the case of `COc1c(C)cc(Cc2c(-c3ccccc3)sc(N)c2C(=O)c2ccc(Cl)cc2)cc1C`, the fold change (FC) amounted to 6.6 in test [1] and 4.6 in test [2]. Also, the inhibition in test [3] is 61%; in test [5], less than 10%; in test [6], less than 10%; in test [7] it was 59%; in test [8] it was less than 10%. The Ratio in test [4] is 3.
Take `COc1ccc(Cc2c(-c3ccccc3)sc(N)c2C(=O)c2ccc(Cl)cc2)cc1C`: the fold change (FC) amounted to 8.1 in test [1] and 6.1 in test [2]. In addition, the inhibition in test [3] is 66%; in test [5], less than 10%; in test [6] it was less than 10%; in test [7], 66%; in test [8], less than 10%. For the same molecule, the Ratio in test [4] came to 3.
`COc1ccc(Cc2c(-c3ccccc3)sc(N)c2C(=O)c2ccc(Cl)cc2)cc1`: the fold change (FC) in test [1] stood at 9.4; in test [2] it was 8.9. For the same molecule, the inhibition in test [3] was 74%; in test [5] it was less than 10%; in test [6] it was less than 10%; in test [7] it was 71%; in test [8] it was less than 10%. In test [4], the Ratio came out at 3.
In the case of `Nc1sc(-c2ccc(Cl)cc2)c(Cc2ccccc2)c1C(=O)c1ccc(Cl)cc1`, the fold change (FC) in test [1] is 7.2; in test [2], 8.4. The inhibition in test [3] was 67%; in test [5], less than 10%; in test [6], less than 10%; in test [7], 69%; in test [8] it was less than 10%. The Ratio in test [4] was 3.
On to `COc1ccc(-c2sc(N)c(C(=O)c3ccc(Cl)cc3)c2Cc2ccc(Cl)cc2)cc1`, for which the fold change (FC) in test [1] was found to be 5; in test [2], 3.9. Besides, the inhibition was 48% in test [3]; less than 10% in test [5]; less than 10% in test [6]; 49% in test [7]; less than 10% in test [8]. Also, in test [4], the Ratio is 3.
Regarding `COc1ccc(-c2sc(N)c(C(=O)c3ccc(Cl)cc3)c2Cc2ccccc2)cc1`, the fold change (FC) in test [1] came to 4.8; in test [2] it was 3.5. The inhibition is 47% in test [3]; less than 10% in test [5]; less than 10% in test [6]; 46% in test [7]; less than 10% in test [8]. Further, the Ratio in test [4] came to 3.
Regarding `Nc1sc(-c2ccccc2)c(Cc2ccc(OC(F)(F)F)cc2)c1C(=O)c1ccc(Cl)cc1`, the figures for the fold change (FC) in test [1] and in test [2] were 8.2 and 6.6, respectively. The inhibition is 69% in test [3]; less than 10% in test [5]; less than 10% in test [6]; 68% in test [7]; less than 10% in test [8]. Besides, the Ratio in test [4] was determined as 3.
Consider `Nc1sc(-c2ccc(Cl)cc2)c(Cc2ccc(F)cc2)c1C(=O)c1ccc(Cl)cc1`, for which the results for the fold change (FC) in test [1] and in test [2] were 9.1 and 9.5, respectively. Also, the inhibition was 73% in test [3]; less than 10% in test [5]; less than 10% in test [6]; 75% in test [7]; less than 10% in test [8]. In test [4], the Ratio stood at 3.
Consider `Nc1sc(-c2ccc(F)cc2)c(Cc2ccccc2)c1C(=O)c1ccc(Cl)cc1`, for which the figures for the fold change (FC) in test [1] and in test [2] were 4.9 and 3.9, respectively. In addition, the inhibition is 49% in test [3]; less than 10% in test [5]; less than 10% in test [6]; 50% in test [7]; less than 10% in test [8]. In addition, the Ratio in test [4] is 3.
With `Cc1ccc(Cc2c(-c3ccc(F)cc3)sc(N)c2C(=O)c2ccc(Cl)cc2)cc1`, the fold change (FC) in test [1] turned out to be 6.5; in test [2], 5.6. For the same molecule, the inhibition in test [3] was 62%; in test [5], less than 10%; in test [6], less than 10%; in test [7], 59%; in test [8], less than 10%. In test [4], the Ratio was determined as 3.
Take `Nc1sc(-c2ccccc2)c(Cc2ccccc2)c1C(=O)c1ccc(Cl)cc1`: the fold change (FC) in test [1] was 4.9; in test [2] it was 4.2. Besides, the inhibition in test [3] was 50%; in test [5] it was less than 10%; in test [6] it was less than 10%; in test [7] it was 51%; in test [8], less than 10%. Besides, the Ratio in test [4] stood at 3.
In the case of `COc1ccc(-c2sc(N)c(C(=O)c3ccc(Cl)cc3)c2Cc2ccc(SC)cc2)cc1`, the fold change (FC) in test [1] came out at 6.5; in test [2] it was 6.1. For the same molecule, the inhibition is 62% in test [3]; less than 10% in test [5]; less than 10% in test [6]; 62% in test [7]; less than 10% in test [8]. For the same molecule, in test [4], the Ratio amounted to 3.
In the case of `Cc1ccc(Cc2c(-c3ccc(Cl)cc3)sc(N)c2C(=O)c2ccc(Cl)cc2)cc1`, the fold change (FC) amounted to 8.6 in test [1] and 7.2 in test [2]. For the same molecule, the inhibition in test [3] was 69%; in test [5], less than 10%; in test [6], less than 10%; in test [7], 71%; in test [8], less than 10%. Further, in test [4], the Ratio was 3.
For the molecule `COc1ccc(Cc2c(-c3ccc(Cl)cc3)sc(N)c2C(=O)c2ccc(Cl)cc2)cc1`, the fold change (FC) in test [1] came to 8.5; in test [2] it was 6.6. The inhibition is 67% in test [3]; less than 10% in test [5]; less than 10% in test [6]; 70% in test [7]; less than 10% in test [8]. Further, in test [4], the Ratio is 3.
Consider `Cc1ccc(Cc2c(-c3ccccc3)sc(N)c2C(=O)c2ccc(Cl)cc2)cc1`, for which the fold change (FC) in test [1] worked out at 5.6; in test [2] it was 5.1. The inhibition in test [3] was 58%; in test [5], less than 10%; in test [6] it was less than 10%; in test [7], 56%; in test [8] it was less than 10%. The Ratio in test [4] stood at 3.
As to `COc1ccccc1Cc1c(-c2ccccc2)sc(N)c1C(=O)c1ccc(Cl)cc1`, the fold change (FC) in test [1] was 5.6; in test [2], 4.9. For the same molecule, the inhibition in test [3] was 51%; in test [5] it was less than 10%; in test [6], less than 10%; in test [7] it was 55%; in test [8] it was less than 10%. Also, in test [4], the Ratio was 3.
